A short description of one data set: in vitro. Conditions: human. The procedure: Fig. S1. (A) RD cells were treated with the indicated concentrations of inhibitors and incubated at 37°C for 24 h. CellTiter‐Glo® luminescent cell viability assay was used to measure the CC50 of selected inhibitors. […] (B) RD cells treated with the selected inhibitors (10 μM) were inoculated with EV-A71 at an MOI of 0.01. At 48 hpi, cells were harvested to detect the expression level of VP1 by western blotting.

Data set [1] concerns EV-A71. Nature of the data set: Cytopathic effect (CPE) inhibition assay in RD cells. Conditions: EV-A71, RD cells; for EC50: Enterovirus A, EVA71, read-out: EC50, compound concentration required to achieve 50% protection from virus-induced cytopathogenicity. It counts as cell-based, Human enterovirus A71. Background: Cytopathic effects are the visible damage that an infection or toxin causes in cultured cells.

For data set [2], the system named is EV-A71. Nature of the data set: Viral load reduction assay in RD cells (RT-qPCR, TCID50, VP1 Western blot). It counts as cell-based, Human enterovirus A71. Conditions: for EV-A71 viral load and viral titer, dose dependence: indicated noncytotoxic concentrations, MOI 0.1, 24 h; for EV-A71 viral load and viral titer in cell lysates and supernatant: 10 μM, MOI 0.01, 24 h. The procedure: Detection of cellular mRNA expression and viral load was performed as described previously ([24]). In brief, the infected or mock-infected cells were lysed and applied to total RNA extraction by using the MiniBEST Universal RNA Extraction Kit (TaKaRa, Code No.9767). Viral RNA in the supernatant was extracted with the MiniBEST Viral RNA Extraction Kit (TaKaRa, Code No.9766). Reverse transcription was performed using the PrimeScript RT reagent Kit (TaKaRa, Code No.PR037A) with an oligo (dT) primer. The resultant cDNAs were used for qPCR assay with the Light Cycler 480 SYBR Green I Master Mix (Roche) to measure the mRNA expression level of cellular genes or viral load in supernatants. The relative viral gene copy was determined by RT-qPCR, using GAPDH as an internal reference.
The viral titer in the indicated samples was determined by TCID50 assay as described previously ([25]). Briefly, serially diluted samples from 10^−1 to 10^−8 in DMEM were inoculated to RD cells, BGMK cells, or MRC-5 in 96‐well plates. The cells were then incubated for 2 to 3 days at 37°C. TCID50 was calculated by counting the wells with cytopathic effect in infected cells using the Reed–Muench method.
(§1) Western blot analysis was performed as described previously ([26]). In brief, the indicated cell samples were lysed in RIPA buffer supplemented with protease inhibitors (Thermo Fisher Scientific, 78430). The cell lysates were then separated in 10% SDS-PAGE and transferred to a 0.45-µm nitrocellulose membrane. After blocking, the membrane was incubated with an against VP1 antibody (GeneTex, GTX132339), VEGFR1 antibody (Abcam, ab32152), VEGFR2 antibody (Abcam, ab134191), phosphorylated VEGFR2 antibody (Tyr951) (CST 4991), VEGFR3 antibody (Beyotime, AF6918), Akt antibody (CST 4685), phosphorylated Akt antibody (CST 4060), or GAPDH antibody (GeneTex, GTX627408) diluted 1:5,000 in primary antibody dilution buffer overnight at 4°C, followed by corresponding secondary staining. The blots were visualized by western horseradish peroxidase substrate and imaged with Gel Doc XR+.
The results represent cell viability in the EV-A71-infected RD cells or 2D human intestinal organoids treated with DMSO (Negative control), Pirodavir (Positive control), or indicated VEGFR inhibitor (10 µM) relative to those in mock-infected RD cells or 2D human intestinal organoids. […] Significant inhibition of EV-A71 infection was found for both cell lysate (left) and supernatant (right) using RT-qPCR analysis. The results represent the viral load in the cells treated with indicated inhibitors relative to that in DMSO-treated cells. (C) Viral titer was also determined for inhibitor-treated samples in TCID50 assays. […] (D) Representative images of immunofluorescence assay for selected inhibitors using Rabbit anti‐VP1 antibody (green). Nuclei are counterstained with DAPI (blue). Scale bar, 50 µm.
Nuclei are counterstained with DAPI (blue). Scale bar, 50 µm.
Fig. S2. […] The results represent the viral load in the cells treated with indicated concentration of VEGFR inhibitors relative to that in DMSO-treated cells. Viral titer was also determined for samples treated with indicated concentrations of VEGFR inhibitors in TCID50 assays.
Fig. S7. Viral reduction in RD cells with Src inhibitor treatment. […] Significant inhibition of EV-A71 infection was found for both cell lysate (left) and supernatant (middle) using RT-qPCR analysis. The results represent the viral load in the cells treated with Dasatinib relative to that in DMSO-treated cells. Viral titer was also determined for inhibitor-treated samples in TCID50 assays (right). […] (C) VP1 protein levels were measured for samples treated with DMSO or Dasatinib using western blotting.
Fig. S8. Viral reduction in RD cells with Akt inhibitor treatment. […] Significant inhibition of EV-A71 infection was found for both cell lysate (left) and supernatant (middle) using RT-qPCR analysis. […]

The test system of the next data set is Akt phosphorylation. The data set is described as follows: Western blot of phosphorylated Akt and total Akt in RD cells. The conditions noted are these: total Akt levels unaltered. The class given is cell-based. The procedure:
as §1
Fig. S8. Viral reduction in RD cells with Akt inhibitor treatment. […] Significant inhibition of EV-A71 infection was found for both cell lysate (left) and supernatant (middle) using RT-qPCR analysis. The results represent the viral load in the cells treated with MK-2206 relative to that in DMSO-treated cells. Viral titer was also determined for inhibitor-treated samples in TCID50 assays (right). […] (C) The levels of VP1, phosphorylated Akt and total Akt protein were measured for samples treated with DMSO or MK-2206 using western blotting.
Fig. S9. […] (A) RD cells were infected with EV-A71 at an MOI of 1, and cell lysates were collected at the indicated times. Western blotting assays were then performed to assess the levels of phosphorylated Akt and total Akt. (B)The plasmids pVEGFR2 or pEmpty vector were transfected into RD cells. At the indicated times post-transfection, cells were harvested to detect the expression levels of phosphorylated Akt and total Akt by western blotting. […] Western blotting assays were then performed to assess the levels of phosphorylated Akt and total Akt. […] At 1 hpi, cells were harvested to detect the expression levels of phosphorylated Akt and total Akt by western blotting. […]
A general note: In western blotting, separated proteins are transferred to a membrane and probed.

Where a name gives a salt, the structure may show the parent alone.

`CCOC(=O)c1ccc(OCCC2CCN(c3ccc(C)nn3)CC2)cc1` [Pirodavir] had a CC50 at 24 h in the data set “in vitro” of 52.9 ± 1.25 µM. In the data set on EV-A71 [1], the “SI (selectivity index), ratio CC50/EC50” value was 120.14 and the EC50 came to 0.44 ± 0.08 µM.

As for `Cc1cc2c(F)c(Oc3ncnn4cc(OC[C@@H](C)O)c(C)c34)ccc2[nH]1` [Brivanib], the “EV-A71 viral load and viral titer, dose dependence” value with EV-A71 [2] is reported as “dose-dependent inhibition”. The compound further had a CC50 at 24 h in the data set “in vitro” of 41.3 ± 2.83 µM. Also, in the data set with EV-A71 [1], the “SI (selectivity index), ratio CC50/EC50” value is 21.28 and the EC50 was 1.94 ± 0.33 µM.

`Cc1[nH]c(/C=C2\C(=O)Nc3ccc(F)cc32)c(C)c1C(=O)NC[C@H](O)CN1CCOCC1` [SU14813]: the “EV-A71 viral load and viral titer, dose dependence” value in the data set on EV-A71 [2] was “dose-dependent inhibition”. The compound also displayed a CC50 at 24 h in the data set “in vitro” (RD cells) of 26.4 ± 6.09 µM. For the same compound, in the data set on EV-A71 [1], the “SI (selectivity index), ratio CC50/EC50” value stood at 15.23 and the EC50 is 1.73 ± 0.18 µM.

`CNC(=O)c1ccccc1Sc1ccc2c(/C=C/c3ccccn3)n[nH]c2c1` [Axitinib]: the “EV-A71 viral load and viral titer, dose dependence” value in the data set with EV-A71 [2] is “dose-dependent inhibition”. The compound also gave a CC50 at 24 h in the data set “in vitro” (RD cells) of 104 ± 17.6 µM.

On to `NC1(c2ccc(-c3nc4ccn5c(=O)[nH]nc5c4cc3-c3ccccc3)cc2)CCC1` [MK-2206, MK-2206 dihydrochloride], for which the “EV-A71 viral load and viral titer in cell lysates and supernatant” value with EV-A71 [2] was “significantly suppressed”. In the data set on Akt phosphorylation, the “Akt phosphorylation following EV-A71 infection” value is given as “significantly inhibited Akt phosphorylation”.

For `Cc1nc(Nc2ncc(C(=O)Nc3c(C)cccc3Cl)s2)cc(N2CCN(CCO)CC2)n1` [Dasatinib], in the data set on EV-A71 [2], the “EV-A71 viral load and viral titer in cell lysates and supernatant” value was “significantly reduced”. For the same compound, the “EV-A71 structural protein VP1 expression (Western blot)” value in the data set with EV-A71 [2] (vs DMSO) is “markedly decreased”.

For the origin of these results see article PMC11542593, “Vascular endothelial growth factor receptor 2 as a potential host target for the inhibition of enterovirus replication” (Journal of Virology, 2024).
